The test system of the test is CD2F1 mice, L1210 leukemia ip, survival T/C. The test is described as follows: NCI In Vivo Anticancer Drug Screen. Data for tumor model L1210 Leukemia (intraperitoneal) in CD2F1 (CDF1) mice. Particulars: higher = longer survival. The procedure, abridged:
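Mice carrying a transplanted tumor received test compound or vehicle alone. The value is the measurement in the treated group divided by that in the vehicle-treated control group.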

Where [1] appears, read: endpoint: mean survival time, dose: 100.0 mg/kg/injection, schedule: Q01DX009 (ip), vehicle: saline with Tween-80.
[2] abbreviates: endpoint: mean survival time, dose: 200.0 mg/kg/injection, schedule: Q01DX009 (ip), vehicle: saline with Tween-80.
The mark [3] stands for this setting: endpoint: mean survival time, dose: 400.0 mg/kg/injection, schedule: Q01DX009 (ip), vehicle: saline with Tween-80.
Setting [4] is: endpoint: mean survival time, dose: 100.0 mg/kg/injection, schedule: Q04DX003 (ip), vehicle: saline with Tween-80.
[5] abbreviates: endpoint: mean survival time, dose: 200.0 mg/kg/injection, schedule: Q04DX003 (ip), vehicle: saline with Tween-80.
The mark [6] stands for this setting: endpoint: mean survival time, dose: 100.0 mg/kg/injection, schedule: Q01DX001 (ip), vehicle: saline with Tween-80.
[7] abbreviates: endpoint: mean survival time, dose: 200.0 mg/kg/injection, schedule: Q01DX001 (ip), vehicle: saline with Tween-80.
Where [8] appears, read: endpoint: mean survival time, dose: 400.0 mg/kg/injection, schedule: Q01DX001 (ip), vehicle: saline with Tween-80.
Where [9] appears, read: endpoint: mean survival time, dose: 400.0 mg/kg/injection, schedule: Q04DX003 (ip), vehicle: saline with Tween-80.

Where “and” joins values, the source holds several entries; their conditions need not be identical. Equal values may be shown once. Inconclusive results and toxic doses are left out.

For `C(/C=C\c1ccccc1)=Nc1ccccc1`, the T/C is, setting by setting: (endpoint: mean survival time, dose: 25.0 mg/kg/injection, schedule: Q01DX009 (ip), vehicle: Klucel (hydroxypropylcellulose) (HPC)) 93 % of control; (endpoint: mean survival time, dose: 50.0 mg/kg/injection, schedule: Q01DX009 (ip), vehicle: Klucel (hydroxypropylcellulose) (HPC)) 93 % of control; (endpoint: mean survival time, dose: 100.0 mg/kg/injection, schedule: Q01DX001 (ip), vehicle: saline sonified) 93 % of control; (endpoint: mean survival time, dose: 100.0 mg/kg/injection, schedule: Q01DX009 (ip), vehicle: Klucel (hydroxypropylcellulose) (HPC)) 95 % of control; under setting [1], 101 % of control; under setting [2], 97 % of control. The T/C under setting [3] is 92 % of control.
As to `O=[N+]([O-])c1ccc(/C(CBr)=N/N2CCCCC2)cc1`, the T/C runs as follows: (endpoint: mean survival time, dose: 100.0 mg/kg/injection, schedule: Q01DX001 (ip), vehicle: saline) 94 % of control; (endpoint: mean survival time, dose: 200.0 mg/kg/injection, schedule: Q01DX001 (ip), vehicle: saline) 93 % of control; (endpoint: mean survival time, dose: 400.0 mg/kg/injection, schedule: Q01DX001 (ip), vehicle: saline) 92 % of control.
With `O/N=C\c1cccc2ccccc12`, the T/C was 97 % of control under setting [4] and 101 % of control under setting [5].
Take `COc1cc2ccc(/C=C/C(=O)c3ccc4c(c3)OCO4)cc2cc1OC`: the T/C reads like this: (endpoint: mean survival time, dose: 25.0 mg/kg/injection, schedule: Q01DX009 (ip), vehicle: water) 98 % of control; (endpoint: mean survival time, dose: 50.0 mg/kg/injection, schedule: Q01DX009 (ip), vehicle: water) 91 % of control; (endpoint: mean survival time, dose: 100.0 mg/kg/injection, schedule: Q01DX009 (ip), vehicle: water) 88 % of control; (endpoint: mean survival time, dose: 200.0 mg/kg/injection, schedule: Q01DX009 (ip), vehicle: water) 90 % of control; (endpoint: mean survival time, dose: 400.0 mg/kg/injection, schedule: Q01DX009 (ip), vehicle: water) 88 % of control.
Turning to `Cc1csc2ncnc(Cl)c12`, the T/C runs as follows: under setting [6], 101 % of control; under setting [7], 97 % of control; under setting [8], 97 % of control.
With `O=C(Nc1ccc(C2=NCCN2)cc1)Nc1cccc(NC(=O)Nc2ccc(C3=NCCN3)cc2)c1`, the T/C is, setting by setting: (endpoint: mean survival time, dose: 1.8 mg/kg/injection, schedule: Q01DX008 (iv), vehicle: other) 103 % of control; (endpoint: mean survival time, dose: 3.75 mg/kg/injection, schedule: Q01DX008 (iv), vehicle: other) 103 % of control.
For the compound `CCOC(=O)Nc1cc2c(c(N)n1)N=C(c1ccccc1)CN2`, the T/C is 118 % of control and 101 % of control (endpoint: median survival time, dose: 0.63 mg/kg/injection, schedule: Q01DX009 (ip), vehicle: saline with Tween-80); 106 % of control (endpoint: median survival time, dose: 0.75 mg/kg/injection, schedule: Q01DX009 (ip), vehicle: saline with Tween-80).
For the compound `NC(=O)c1ncn2c(=O)n(CCCl)nnc12`, the T/C reads like this: (endpoint: median survival time, dose: 3.0 mg/kg/injection, schedule: Q01DX009 (ip), vehicle: saline) 174 % of control; (endpoint: median survival time, dose: 3.12 mg/kg/injection, schedule: Q01DX009 (ip), vehicle: saline) 212 % of control; (endpoint: median survival time, dose: 6.0 mg/kg/injection, schedule: Q01DX009 (ip), vehicle: saline) 223 % of control; (endpoint: median survival time, dose: 6.25 mg/kg/injection, schedule: Q01DX009 (ip), vehicle: saline) 184 % of control and 214 % of control and 365 % of control; (endpoint: median survival time, dose: 6.25 mg/kg/injection, schedule: Q01DX009 (ip), vehicle: suspension in saline) 182 % of control; (endpoint: median survival time, dose: 12.0 mg/kg/injection, schedule: Q01DX009 (ip), vehicle: saline) 352 % of control. In addition, the T/C is, setting by setting: (endpoint: median survival time, dose: 12.5 mg/kg/injection, schedule: Q01DX009 (ip), vehicle: saline) 222 % of control and 365 % of control (2×); (endpoint: median survival time, dose: 12.5 mg/kg/injection, schedule: Q01DX009 (ip), vehicle: suspension in saline) 322 % of control; (endpoint: median survival time, dose: 25.0 mg/kg/injection, schedule: Q01DX009 (ip), vehicle: suspension in saline) 322 % of control; (endpoint: median survival time, dose: 50.0 mg/kg/injection, schedule: Q01DX009 (ip), vehicle: suspension in saline) 100 % of control.
As for `Nc1nc(/C=C(/O)c2ccccc2)c2ncn(C3OC(CO)C(O)C3O)c2n1` (configuration not stated), the T/C reads like this: (endpoint: mean survival time, dose: 12.5 mg/kg/injection, schedule: Q01DX005 (ip), vehicle: distilled water + Tween-80) 103 % of control; (endpoint: mean survival time, dose: 12.5 mg/kg/injection, schedule: Q01DX009 (ip), vehicle: distilled water + Tween-80) 89 % of control; (endpoint: mean survival time, dose: 25.0 mg/kg/injection, schedule: Q01DX005 (ip), vehicle: distilled water + Tween-80) 114 % of control and 115 % of control; (endpoint: mean survival time, dose: 25.0 mg/kg/injection, schedule: Q01DX009 (ip), vehicle: distilled water + Tween-80) 89 % of control; (endpoint: mean survival time, dose: 50.0 mg/kg/injection, schedule: Q01DX005 (ip), vehicle: distilled water + Tween-80) 120 % of control; (endpoint: mean survival time, dose: 50.0 mg/kg/injection, schedule: Q01DX009 (ip), vehicle: distilled water + Tween-80) 92 % of control. In addition, the T/C (endpoint: mean survival time, dose: 100.0 mg/kg/injection, schedule: Q01DX005 (ip), vehicle: distilled water + Tween-80) was 160 % of control; the T/C (endpoint: mean survival time, dose: 100.0 mg/kg/injection, schedule: Q01DX009 (ip), vehicle: distilled water + Tween-80) is 102 % of control; the T/C (endpoint: mean survival time, dose: 200.0 mg/kg/injection, schedule: Q01DX009 (ip), vehicle: distilled water + Tween-80) is 103 % of control; the T/C (endpoint: median survival time, dose: 12.5 mg/kg/injection, schedule: Q01DX009 (ip), vehicle: distilled water + Tween-80) was 103 % of control; the T/C (endpoint: median survival time, dose: 25.0 mg/kg/injection, schedule: Q01DX009 (ip), vehicle: distilled water + Tween-80) is 107 % of control; the T/C (endpoint: median survival time, dose: 50.0 mg/kg/injection, schedule: Q01DX009 (ip), vehicle: distilled water + Tween-80) was 111 % of control. Further, the T/C (endpoint: median survival time, dose: 100.0 mg/kg/injection, schedule: Q01DX009 (ip), vehicle: distilled water + Tween-80) was 113 % of control.
As to `CC1Cc2c(N)cccc2C1=O` (configuration not stated), the T/C is 98 % of control under setting [6], 87 % of control under setting [7] and 91 % of control under setting [8].
In the case of `NCCOc1ccc(-n2cnc3c(=O)[nH]c(N)nc32)cc1`, the T/C (endpoint: mean survival time, dose: 50.0 mg/kg/injection, schedule: Q04DX002 (ip), vehicle: saline with Tween-80) was 93 % of control; the T/C (endpoint: mean survival time, dose: 100.0 mg/kg/injection, schedule: Q04DX002 (ip), vehicle: saline with Tween-80) is 96 % of control; the T/C (endpoint: mean survival time, dose: 200.0 mg/kg/injection, schedule: Q04DX002 (ip), vehicle: saline with Tween-80) is 104 % of control.
On to `Cc1ccc(C2(C(=O)O)CCCC2)cc1`, for which the T/C by setting is: under setting [1], 96 % of control; under setting [4], 97 % of control; under setting [2], 97 % of control; under setting [5], 98 % of control; under setting [3], 90 % of control; under setting [9], 95 % of control.
On to `O=S(=O)(O)c1ccccc1N=Nc1c(S(=O)(=O)O)cc2cc(S(=O)(=O)O)c(N=Nc3ccccc3S(=O)(=O)O)c(O)c2c1O`, for which the T/C was 97 % of control under setting [4] and 100 % of control under setting [5].
As to `O=C(Nc1ccccc1)Nc1nnnc2ccccc12`, the T/C by setting is: under setting [4], 101 % of control; under setting [5], 90 % of control; under setting [9], 101 % of control.
As for `CC(C)(C)OC(=O)C(CCC(=O)O)NC(=O)OCc1ccccc1` (configuration not stated), the T/C is 99 % of control under setting [4], 97 % of control under setting [5] and 100 % of control under setting [9].

(Values after PubChem BioAssay AID256 (DTP/NCI, 2004).)
